{
  "source": "patent US7598340B2",
  "about": "“Monoclonal antibody to a human MDR1 multidrug resistance gene product, and uses” (The Board of Trustees of the University of Illinois, priority 1992, dated 2009)",
  "key": {"BALB/c 3T3-1000 cells": {"system": "BALB/c 3T3-1000 cells", "test": "Cell growth inhibition of BALB/c 3T3-1000 cells by vinblastine with mAb or verapamil", "assay_type": "cell-based, mouse", "details": "350 ng/ml vinblastine"}, "[1]": {"system": "BALB/c 3T3-1000 fibroblasts", "test": "Colony formation by BALB/c 3T3-1000 fibroblasts in the presence of vinblastine", "assay_type": "cell-based, mouse", "details": "BALB/c 3T3-1000 cell line", "method": "The effects of antibody preparations of the invention on drug cytotoxicity may be assessed by incubating suspensions of MDR and control cells with the antibody preparation, then testing for cell growth inhibition by colony formation, plating efficiency, and/or MTT growth inhibition assay^13,16 in the absence and presence of an anti-cancer drug such as one of the vinca alkaloids. BALB/c 3T3-1000 fibroblasts are particularly suitable for plating efficiency assays and the MDR cell line K562/inf for the growth inhibition assay. The effects of antibody preparations on drug cytotoxicity may be assayed by incubating cell suspensions with a purified antibody preparation, and plating cells in microtitre plate wells for colony or growth inhibition assays in the presence of the antibody preparation.\nAll drugs were obtained from Sigma, except for G418 (Gibco) and taxol (gift of Dr. S. B. Horwitz). Colony formation and MTT assays for cell growth inhibition were carried out by art-recognized procedures. […]\nIn the system described in FIG. 3B, we examined the effects of different mAb on colony formation by BALB/c 3T3-1000 fibroblasts in the presence of vinblastine. […] Colonies were fixed with methanol or ethanol and stained with crystal violet on day 11, and scored for plating efficiency."}},
  "data": [
    {"smiles": "COc1ccc(CCN(C)CCCC(C#N)(c2ccc(OC)c(OC)c2)C(C)C)cc1OC", "note": "(centres unmarked) [Verapamil, verapamil]", "values": [
      {"measurement": "concentration achieving the same potentiation of vinblastine toxicity", "setting": "BALB/c 3T3-1000 cells", "value": 3, "unit": "µM"}
    ]},
    {"smiles": "CC[C@]1(O)C[C@@H]2CN(CCc3c([nH]c4ccccc34)[C@@](C(=O)OC)(c3cc4c(cc3OC)N(C)[C@H]3[C@@](O)(C(=O)OC)[C@H](OC(C)=O)[C@]5(CC)C=CCN6CC[C@]43[C@@H]65)C2)C1", "note": "[vinblastine]", "values": [
      {"measurement": "ID90 of vinblastine", "setting": "[1]", "value": 0.35, "unit": "µg/mL"}
    ]}
  ]
}
